Laboratory results: patent publication US7019109B2, “SSTR1-selective analogs” (The Salk Institute for Bilogical Studies, priority 2001, dated 2006)
Where two headings read alike, the source gives them in different places. *1 amine or outer side, *2 acyl side, *3 side chain or, on linkers, in order; H or OH if unused. Where a SMILES comes first, the peptide text is derived from it. Bridges are numbered along the chain shown (N, C = ends). [ ]: non-standard residue; d: D form. NMePhe(4-CH2NHiPr) = CN[C@@H](Cc1ccc(CNC(C)C)cc1)C(=O)O; Phe(4-CH2NHiPr) = CC(C)NCc1ccc(C[C@H](N)C(=O)O)cc1; Tyr(3-I) = N[C@@H](Cc1ccc(O)c(I)c1)C(=O)O; X1 = NC(=O)N[C@@H](CS[*:2])C(=O)[*:1]; X2 = NC(=O)N[C@H](CS[*:2])C(=O)[*:1]

Assays:
Assay type in all cases: binding
human SSTR1 = biological target: T1, human SSTR1 (Homo sapiens, UniProt P30872); assay: Displacement of 125I-[Leu8,D-Trp22,Tyr25]-SRIF-28 from cloned SSTR1 (receptor autoradiography); settings: for binding strength and selectivity for SSTR1, in words: Peptide No. 27 and 2A after iodination
T1 construct: expressed in transfected cells; host or cells: CHO-K1 cells and CCL39 cells
T1 sequence (P30872 whole entry): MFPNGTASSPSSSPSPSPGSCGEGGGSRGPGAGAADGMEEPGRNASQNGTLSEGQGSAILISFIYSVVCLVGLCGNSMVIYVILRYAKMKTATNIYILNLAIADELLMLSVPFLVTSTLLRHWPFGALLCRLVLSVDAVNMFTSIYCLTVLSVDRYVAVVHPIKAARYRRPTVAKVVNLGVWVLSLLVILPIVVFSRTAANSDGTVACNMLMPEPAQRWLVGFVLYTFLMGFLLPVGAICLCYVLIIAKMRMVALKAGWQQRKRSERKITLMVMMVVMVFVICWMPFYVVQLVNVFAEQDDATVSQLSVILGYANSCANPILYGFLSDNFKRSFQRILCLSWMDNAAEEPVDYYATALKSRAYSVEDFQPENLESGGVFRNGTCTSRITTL
Procedure: (§1) Generally, recombinant cells expressing the receptor are washed and homogenized to prepare a crude protein homogenate that is frozen, embedded and then cut in 10–20 μm thin sections, as known in this art. Candidate substances, such as potential SRIF agonists and antagonists, are incubated with the tissue sections, and the interaction between the candidate substance and the receptor polypeptide is monitored.
(§2) Receptor binding assays are performed on cloned SRIF receptors as generally set forth in Reubi, J. C. et al., J. Clin. Endocrinol. […] Med. 2000, 27, 273–282.
(§3) In vitro Bioassay: The various somatostatin analogs are tested in vitro for their ability to bind to isolated cloned receptors expressed on CHO-K1 cells and CCL39 cells. CHO-K1 cells are grown in Ham's F-12 medium, and CCL39 cells are grown in Dulbecco's modified Eagle's medium/Ham's F-12(1:1) mix, supplemented with 10% fetal bovine serum, 100 U/ml penicillin and 100 μg/ml streptomycin, in humidified air containing 5% CO2 at 37° C.
(§4) Cells are washed and prepared to produce homogenates as described in detail in Reubi, J. C. et al, Eur. J. Nucl. Med. 2000, 27, 273–282.
(§5) Receptor autoradiography is performed on 20 μm thick cryostat sections of the membrane pellets, mounted on microscope slides, and then stored at −20° C. […] Increasing concentrations of the unlabeled peptide are used ranging from 0.1–1000 nM. […] IC50 values are calculated after quantification of the data using a computer-assisted image processing system as known in this art.

human SSTR2 = biological target: T2, human SSTR2 (Homo sapiens, UniProt P30874); assay: Displacement of 125I-[Leu8,D-Trp22,Tyr25]-SRIF-28 from cloned SSTR2 (receptor autoradiography)
T2 construct: expressed in transfected cells; host or cells: CHO-K1 cells and CCL39 cells
T2 sequence (P30874 whole entry): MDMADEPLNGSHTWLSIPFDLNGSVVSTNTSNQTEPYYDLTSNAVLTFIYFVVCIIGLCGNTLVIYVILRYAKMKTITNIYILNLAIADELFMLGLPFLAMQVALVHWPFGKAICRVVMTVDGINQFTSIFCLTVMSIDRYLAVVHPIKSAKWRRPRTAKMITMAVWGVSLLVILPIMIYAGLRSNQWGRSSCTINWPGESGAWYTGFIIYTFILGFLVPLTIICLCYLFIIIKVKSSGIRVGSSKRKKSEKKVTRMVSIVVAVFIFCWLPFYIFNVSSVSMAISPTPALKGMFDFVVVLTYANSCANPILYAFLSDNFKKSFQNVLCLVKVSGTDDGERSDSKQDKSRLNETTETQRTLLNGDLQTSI
Procedure: as §1, §2, §3, §4
(§6) Receptor autoradiography is performed on 20 μm thick cryostat sections of the membrane pellets, mounted on microscope slides, and then stored at −20° C. […] […] […] IC50 values are calculated after quantification of the data using a computer-assisted image processing system as known in this art.

human SSTR3 = biological target: T3, human SSTR3 (Homo sapiens, UniProt P32745); assay: Displacement of 125I-[Leu8,D-Trp22,Tyr25]-SRIF-28 from cloned SSTR3 (receptor autoradiography); settings: for effect on binding of the SRIF-28 radioligand to human SSTR3: at concentrations of 100 nM; for IC50: read-out: IC50 (nM) mSSTR3; for binding to SSTR3, in words: Peptide No. 27 iodinated
T3 construct: expressed in transfected cells; host or cells: CHO-K1 cells and CCL39 cells
T3 sequence (P32745 whole entry): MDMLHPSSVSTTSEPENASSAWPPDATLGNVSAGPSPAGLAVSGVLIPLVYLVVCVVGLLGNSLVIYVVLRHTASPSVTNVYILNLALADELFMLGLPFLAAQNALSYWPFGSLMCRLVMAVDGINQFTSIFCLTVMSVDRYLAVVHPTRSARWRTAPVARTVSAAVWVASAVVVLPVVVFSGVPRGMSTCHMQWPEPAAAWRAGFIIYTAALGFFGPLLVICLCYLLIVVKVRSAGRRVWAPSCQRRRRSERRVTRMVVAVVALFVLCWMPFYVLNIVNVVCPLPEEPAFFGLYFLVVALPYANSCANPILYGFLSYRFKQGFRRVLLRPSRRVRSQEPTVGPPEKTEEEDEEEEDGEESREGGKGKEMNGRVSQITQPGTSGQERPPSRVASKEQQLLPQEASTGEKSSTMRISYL
Procedure: as §1, §2, §3, §4, §5

human SSTR4 = biological target: T4, human SSTR4 (Homo sapiens, UniProt P31391); assay: Displacement of 125I-[Leu8,D-Trp22,Tyr25]-SRIF-28 from cloned SSTR4 (receptor autoradiography); settings: for IC50: read-out: IC50 (nM) mSSTR4; for binding to SSTR4, in words: Peptide No. 27 iodinated
T4 construct: expressed in transfected cells; host or cells: CHO-K1 cells and CCL39 cells
T4 sequence (P31391 whole entry): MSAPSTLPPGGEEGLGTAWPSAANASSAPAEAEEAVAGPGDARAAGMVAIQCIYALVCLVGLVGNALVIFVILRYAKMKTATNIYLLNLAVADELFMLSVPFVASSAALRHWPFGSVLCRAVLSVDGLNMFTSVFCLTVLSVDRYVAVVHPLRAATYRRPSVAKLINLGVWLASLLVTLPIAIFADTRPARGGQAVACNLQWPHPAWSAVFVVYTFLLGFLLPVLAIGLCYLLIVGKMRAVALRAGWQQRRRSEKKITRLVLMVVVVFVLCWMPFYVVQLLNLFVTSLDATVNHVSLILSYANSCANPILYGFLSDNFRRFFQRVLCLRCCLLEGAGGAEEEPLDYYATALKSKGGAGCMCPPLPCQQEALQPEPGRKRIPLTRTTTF
Procedure: as §1, §2, §3, §4, §5

human SSTR5 = biological target: T5, human SSTR5 (Homo sapiens, UniProt P35346); assay: Displacement of 125I-[Leu8,D-Trp22,Tyr25]-SRIF-28 from cloned SSTR5 (receptor autoradiography)
T5 construct: expressed in transfected cells; host or cells: CHO-K1 cells and CCL39 cells
T5 sequence (P35346 whole entry): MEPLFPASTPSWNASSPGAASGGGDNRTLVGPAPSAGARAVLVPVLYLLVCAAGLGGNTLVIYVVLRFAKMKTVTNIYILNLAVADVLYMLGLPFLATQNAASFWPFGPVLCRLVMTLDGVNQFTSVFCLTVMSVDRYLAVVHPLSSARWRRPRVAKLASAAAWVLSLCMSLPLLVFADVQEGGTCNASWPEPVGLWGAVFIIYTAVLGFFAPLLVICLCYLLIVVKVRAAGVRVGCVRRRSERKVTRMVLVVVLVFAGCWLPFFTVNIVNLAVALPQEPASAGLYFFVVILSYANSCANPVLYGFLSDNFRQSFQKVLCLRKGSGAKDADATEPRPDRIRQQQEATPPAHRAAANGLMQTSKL
Procedure: as §1, §2, §3, §4, §6

[1] = inhibition of radioligand binding of 125I-[Leu8,D-Trp22,Tyr24]SRIF-28, cloned receptor, table
[2] = displacement of iodinated SRIF-28 radioligand, read-out: IC50 / binding affinity at human SSTR1
[3] = inhibition of radioligand binding of 125I-[Leu8,D-Trp22,Tyr24]SRIF-28, cloned receptor, table, read-out: IC50 (nM) mSSTR1

IC50 (human SSTR2; read-out: IC50 (nM) mSSTR2) | IC50 (human SSTR1; [3]) | IC50 (human SSTR3) | IC50 (human SSTR4) | Compound | binding strength and selectivity for SSTR1, in words (human SSTR1) | other results
> 10000 nM | – | – | – | CC(C)NCc1ccc(C[C@@H]2NC(=O)[C@@H](Cc3c[nH]c4ccccc34)NC(=O)[C@H](Cc3ccccc3)NC(=O)[C@H](Cc3ccccc3)NC(=O)[C@H](CCCCN)NC(=O)[C@@H](N)CSSC[C@@H](C(=O)O)NC(=O)[C@H](CO)NC(=O)[C@H]([C@@H](C)O)NC(=O)[C@H](Cc3ccc(O)cc3)NC(=O)[C@H]([C@@H](C)O)NC2=O)cc1 [2A, (cyclo)H-Cys-Lys-Phe-Phe-D-Trp-IAmp-Thr-Tyr-Thr-Ser-Cys-OH] (H-CKFF[dW][Phe(4-CH2NHiPr)]TYTSC-OH; disulfide 1-11) | continues to bind strongly | effect on binding of the SRIF-28 radioligand to human SSTR3 (human SSTR3): even less effect; IC50 (human SSTR4; [1]): > 10000 nM
> 10000 nM | – | – | – | CC(C)NCc1ccc(C[C@@H]2NC(=O)[C@@H](Cc3c[nH]c4ccccc34)NC(=O)[C@H](Cc3ccccc3)NC(=O)[C@H](Cc3ccccc3)NC(=O)[C@H](CCCCN)NC(=O)[C@@H](N)CSSC[C@@H](C(=O)O)NC(=O)[C@H](CO)NC(=O)[C@H]([C@@H](C)O)NC(=O)[C@H](Cc3ccc(O)c(I)c3)NC(=O)[C@H]([C@@H](C)O)NC2=O)cc1 [Peptide No. 2B] (H-CKFF[dW][Phe(4-CH2NHiPr)]T[Tyr(3-I)]TSC-OH; disulfide 1-11) | – | –
> 10000 nM | 8.7 nM | 610 nM | 200 nM | CC(C)NCc1ccc(C[C@H]2C(=O)N[C@@H]([C@@H](C)O)C(=O)N[C@@H](Cc3ccccc3)C(=O)N[C@@H]([C@@H](C)O)C(=O)N[C@@H](CO)C(=O)N[C@H](C(=O)O)CSSC[C@H](N)C(=O)N[C@@H](CCCCN)C(=O)N[C@@H](Cc3ccccc3)C(=O)N[C@@H](Cc3ccccc3)C(=O)N[C@H](Cc3c[nH]c4ccccc34)C(=O)N2C)cc1 [Peptide No. 13, (cyclo)H-Cys-Lys-Phe-Phe-D-Trp-N^αMeIAmp-Thr-Phe-Thr-Ser-Cys-OH] (H-CKFF[dW][NMePhe(4-CH2NHiPr)]TFTSC-OH; disulfide 1-11) | – | IC50 (human SSTR1; [2]): ~8.7 nM; IC50 (human SSTR5; read-out: IC50 (nM) mSSTR5): > 10000 nM
> 10000 nM | 17.4 nM | > 1000 nM | > 10000 nM | CC(C)NCc1ccc(C[C@@H]2NC(=O)[C@@H](Cc3c[nH]c4ccccc34)NC(=O)[C@H](Cc3ccccc3)NC(=O)[C@H](Cc3ccccc3)NC(=O)[C@H](CCCCN)NC(=O)[C@H](NC(N)=O)CSSC[C@@H](C(=O)O)NC(=O)[C@H](CO)NC(=O)[C@H]([C@@H](C)O)NC(=O)[C@H](Cc3ccc(O)cc3)NC(=O)[C@H]([C@@H](C)O)NC2=O)cc1 [Peptide No. 12C, (cyclo)CbmD-Cys-Lys-Phe-Phe-D-Trp-IAmp-Thr-Tyr-Thr-Ser-Cys-OH] (KFF[dW][Phe(4-CH2NHiPr)]TYTSC-OH; linker N-10 via X2) | – | IC50 (human SSTR5; read-out: IC50 (nM) mSSTR5): > 1000 nM
> 10000 nM | 43 nM | > 1000 nM | > 1000 nM | CC(C)NCc1ccc(C[C@H]2C(=O)N[C@@H]([C@@H](C)O)C(=O)N[C@@H](Cc3ccc(O)cc3)C(=O)N[C@@H]([C@@H](C)O)C(=O)N[C@@H](CO)C(=O)N[C@H](C(=O)O)CSSC[C@H](NC(N)=O)C(=O)N[C@@H](CCCCN)C(=O)N[C@@H](Cc3ccccc3)C(=O)N[C@@H](Cc3ccccc3)C(=O)N[C@H](Cc3c[nH]c4ccccc34)C(=O)N2C)cc1 [Peptide No. 12, (cyclo)CbmCys-Lys-Phe-Phe-D-Trp-N^αMeIAmp-Thr-Tyr-Thr-Ser-Cys-OH] (KFF[dW][NMePhe(4-CH2NHiPr)]TYTSC-OH; linker N-10 via X1) | good selectivity with good binding strength | IC50 (human SSTR5; read-out: IC50 (nM) mSSTR5): > 10000 nM
– | 7.2 nM | > 1000 nM | > 1000 nM | CC(C)NCc1ccc(C[C@H]2C(=O)N[C@@H]([C@@H](C)O)C(=O)N[C@@H](Cc3ccc(O)cc3)C(=O)N[C@@H]([C@@H](C)O)C(=O)N[C@@H](CO)C(=O)N[C@H](C(=O)O)CSSC[C@H](N)C(=O)N[C@@H](CCCCN)C(=O)N[C@@H](Cc3ccccc3)C(=O)N[C@@H](Cc3ccccc3)C(=O)N[C@H](Cc3c[nH]c4ccccc34)C(=O)N2C)cc1 [Peptide No. 2, (cyclo)H-Cys-Lys-Phe-Phe-D-Trp-N^αMeIAmp-Thr-Tyr-Thr-Ser-Cys-OH] (H-CKFF[dW][NMePhe(4-CH2NHiPr)]TYTSC-OH; disulfide 1-11) | – | IC50 (human SSTR1; [2]): ~6.1 nM; effect on binding of the SRIF-28 radioligand to human SSTR2 (human SSTR2; at concentrations of 100 nM): minimal effects; IC50 (human SSTR2; inhibition of radioligand binding of 125I-[Leu8,D-Trp22,Tyr24]SRIF-28, cloned receptor, table, read-out: IC50 (nM) mSSTR2): > 10000 nM; IC50 (human SSTR2; read-out: concentration below which no binding to SSTR2): > 10000 nM; binding to SSTR3, in words (human SSTR3): does not bind strongly; effect on binding of the SRIF-28 radioligand to human SSTR3 (human SSTR3): minimal effects; binding to SSTR4, in words (human SSTR4): does not bind strongly; effect on binding of the SRIF-28 radioligand to human SSTR4 (human SSTR4; at concentrations of 100 nM): minimal effects; effect on binding of the SRIF-28 radioligand to human SSTR5 (human SSTR5; at concentrations of 100 nM): minimal effects; IC50 (human SSTR5; inhibition of radioligand binding of 125I-[Leu8,D-Trp22,Tyr24]SRIF-28, cloned receptor, table, read-out: IC50 (nM) mSSTR5): > 10000 nM; IC50 (human SSTR5; read-out: concentration below which no binding to SSTR5): > 10000 nM
– | – | – | – | (cyclo 3-14)MeCbm-Cys-Lys-Phe-Phe-D-Trp-N^αMeIAmp-Thr-Tyr-Thr-Ser-Cys-OH [Peptide No. 17] | bind strongly and selectively | –
– | – | – | – | (cyclo) (DPTA)Cys-Lys-Phe-Phe-D-Trp-N^αMeIAmp-Thr-Tyr-Thr-Ser-Cys-OH [Peptide No. 26] | continue to bind strongly and selectively | –
> 10000 nM | 25 nM | > 1000 nM | – | CC(C)NCc1ccc(C[C@H]2C(=O)N[C@@H]([C@@H](C)O)C(=O)N[C@@H](Cc3ccccc3)C(=O)N[C@@H]([C@@H](C)O)C(=O)N[C@@H](CO)C(=O)N[C@H](C(=O)O)CSSC[C@H](NC(=O)[C@@H](N)Cc3ccc(O)cc3)C(=O)N[C@@H](CCCCN)C(=O)N[C@@H](Cc3ccccc3)C(=O)N[C@@H](Cc3ccccc3)C(=O)N[C@H](Cc3c[nH]c4ccccc34)C(=O)N2C)cc1 [Peptide No. 27, (cyclo)H-Tyr-Cys-Lys-Phe-Phe-D-Trp-N^αMeIAmp-Thr-Phe-Thr-Ser-Cys-OH] (H-YCKFF[dW][NMePhe(4-CH2NHiPr)]TFTSC-OH; disulfide 2-12) | – | binding to SSTR2, in words (human SSTR2; Peptide No. 27 iodinated): No specific binding; binding to SSTR3, in words (human SSTR3): No specific binding; binding to SSTR4, in words (human SSTR4): No specific binding; IC50 (human SSTR4; [1]): 300 nM
– | – | – | – | (cyclo)Biucys-Lys-Phe-Phe-D-Trp-N^αMeIAmp-Thr-Tyr-Thr-Ser-Cys-OH [Peptide No. 18] | bind strongly and selectively | –
– | – | – | – | (cyclo) (DOTA)Cys-Lys-Phe-Phe-D-Trp-N^αMeIAmp-Thr-Tyr-Thr-Ser-Cys-OH [Peptide No. 25] | continue to bind strongly and selectively | –
> 10000 nM | – | – | – | CC(C)NCc1ccc(C[C@@H]2NC(=O)[C@@H](Cc3c[nH]c4ccccc34)NC(=O)[C@H](Cc3ccccc3)NC(=O)[C@H](Cc3ccccc3)NC(=O)[C@H](CCCCN)NC(=O)[C@@H](NC(N)=O)CSSC[C@@H](C(=O)O)NC(=O)[C@H](CO)NC(=O)[C@H]([C@@H](C)O)NC(=O)[C@H](Cc3ccc(O)c(I)c3)NC(=O)[C@H]([C@@H](C)O)NC2=O)cc1 [Peptide No. 12B] (KFF[dW][Phe(4-CH2NHiPr)]T[Tyr(3-I)]TSC-OH; linker N-10 via X1) | – | –
